Experiments:
human GR [1] = target: T1, human GR (Homo sapiens, UniProt P04150); assay: Transrepression Assay (GITAR), TNFα-β-lactamase reporter in U937 cells; type: cell-based; set-up: U937 cells contain an endogenous glucocorticoid receptor (GR); endogenous in cells; host or cells: U937 cells stably transfected with the TNF-alpha promoter/beta-lactamase reporter; conditions: for GITAR > GRAMM % SEP: GITAR Emax minus GRAMMER Emax; for EC50: U937 cells, inflection point, read-out: Transrepression U937 Cells GITAR IP
T1 sequence (P04150 1-777): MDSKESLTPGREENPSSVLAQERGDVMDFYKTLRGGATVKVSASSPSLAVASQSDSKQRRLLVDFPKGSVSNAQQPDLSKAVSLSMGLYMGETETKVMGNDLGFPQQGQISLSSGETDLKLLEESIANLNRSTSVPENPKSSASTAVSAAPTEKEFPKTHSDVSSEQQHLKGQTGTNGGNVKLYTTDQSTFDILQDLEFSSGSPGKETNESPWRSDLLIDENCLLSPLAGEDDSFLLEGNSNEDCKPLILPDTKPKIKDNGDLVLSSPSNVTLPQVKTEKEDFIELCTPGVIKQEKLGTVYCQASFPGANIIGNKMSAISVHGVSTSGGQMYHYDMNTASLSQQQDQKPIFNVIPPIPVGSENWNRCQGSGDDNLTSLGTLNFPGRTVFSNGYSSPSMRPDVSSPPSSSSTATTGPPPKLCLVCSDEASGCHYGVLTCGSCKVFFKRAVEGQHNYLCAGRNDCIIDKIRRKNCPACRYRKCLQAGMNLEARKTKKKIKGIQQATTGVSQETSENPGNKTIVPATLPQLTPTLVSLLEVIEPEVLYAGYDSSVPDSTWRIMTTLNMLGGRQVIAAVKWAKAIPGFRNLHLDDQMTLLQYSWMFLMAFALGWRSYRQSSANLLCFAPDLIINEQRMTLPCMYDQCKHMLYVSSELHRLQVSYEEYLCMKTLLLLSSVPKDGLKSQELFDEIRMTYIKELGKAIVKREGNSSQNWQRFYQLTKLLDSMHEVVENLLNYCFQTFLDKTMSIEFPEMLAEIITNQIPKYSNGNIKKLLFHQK
How it was run: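 U937 cells stably carrying a TNF-α promoter–β-lactamase reporter, with endogenous GR, are preincubated with compound 30–45 min at 37 °C, then stimulated with PMA (5 ng/ml final) and LPS (100 ng/ml final) overnight (~18 hr). β-Lactamase is read with CCF2-AM substrate; repression by 100 nM dexamethasone defines 100%.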

human GR [2] = target: T1, human GR; assay: Trans-Activation Modulation of Glucocorticoid Receptor (GRAMMER), MMTV-LUC reporter, agonist mode; type: cell-based; set-up: endogenous in cells; conditions: for Emax: A549, A549 cells, maximum activity, read-out: Transactivation A549 Cells GRAMMER Emax; for EC50: A549 cells, inflection point, read-out: Transactivation A549 Cells GRAMMER IP
How it was run: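 Readout is luciferase from a modified MMTV LTR promoter after 24 h compound exposure alongside 10 nM dexamethasone (100% activity reference), DMSO ≤1%.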

[3] = U-937, U937 cells, maximum activity, read-out: Transrepression U937 Cells GITAR Emax
[4] = U-937, activity repressed by 100 nM dexamethasone alone set as 100%, read-out: maximal activity in the transrepression (GITAR) assay

GITAR > GRAMM % SEP (human GR [1]) [%]	EC50 (human GR [1]) [nM]	Emax (human GR [1]; [3]) [%]	Emax (human GR [1]; [4]) [%]	Emax (human GR [2]) [%]	EC50 (human GR [2]) [nM]	Compound
8.2	1890	16.2	> 5	8	4760	C[C@@H](O)CN(C[C@H]1CCC2=Cc3c(cnn3-c3ccc(F)cc3)C[C@@]21C)S(=O)(=O)Cc1ccccc1C(=O)O [Example 182, 2-[({{[(4αR,5S)-1-(4-fluorophenyl)-4α-methyl-1,4,4α,5,6,7-hexahydrocyclopenta[f]indazol-5-yl]methyl}[(2R)-2-hydroxypropyl]amino}sulfonyl)methyl]benzoic acid]
–	365	58.7	> 5	33.5	519	C[C@]12Cc3cnn(-c4ccc(F)cc4)c3C=C1CC[C@@H]2CN(CC1CC1)S(=O)(=O)Cc1ccccc1 [Example 21, N-(cyclopropylmethyl)-N-{[(4αR,5S)-1-(4-fluorophenyl)-4α-methyl-1,4,4α,5,6,7-hexahydrocyclopenta[f]indazol-5-yl]methyl}-1-phenylmethanesulfonamide]
30.1	190	60.5	> 5	30.4	236	COC(=O)c1ccccc1CS(=O)(=O)N(CCc1ccccc1F)C[C@H]1CCC2=Cc3c(cnn3-c3ccc(F)cc3)C[C@@]21C [Example 188, methyl 2-{[([2-(2-fluorophenyl)ethyl]{[(4αR,5S)-1-(4-fluorophenyl)-4α-methyl-1,4,4α,5,6,7-hexahydrocyclopenta[f]indazol-5-yl]methyl}amino)sulfonyl]methyl}benzoate]
3.7	387	40.3	> 5	36.6	552	C[C@]12Cc3cnn(-c4ccc(F)cc4)c3C=C1CC[C@@H]2CN(CCc1ccccn1)S(=O)(=O)Cc1ccccc1C(N)=O [Example 196, 2-({[{[(4αR,5S)-1-(4-fluorophenyl)-4α-methyl-1,4,4α,5,6,7-hexahydrocyclopenta[f]indazol-5-yl]methyl}(2-pyridin-2-ylethyl)amino]sulfonyl}methyl)benzamide]

Continued, compound first:

Compound	GITAR > GRAMM % SEP (human GR [1]) [%]	EC50 (human GR [1]) [nM]	Emax (human GR [1]; [3]) [%]	Emax (human GR [1]; [4]) [%]	Emax (human GR [2]) [%]	EC50 (human GR [2]) [nM]
C[C@]12Cc3cnn(-c4ccc(F)cc4)c3C=C1CC[C@@H]2CN(CC#N)S(=O)(=O)Cc1cccc(C(F)(F)F)c1 [Example 30, N-(cyanomethyl)-N-{[(4αR,5S)-1-(4-fluorophenyl}-4α-methyl-1,4,4α,5,6,7-hexahydrocyclopenta[f]indazol-5-yl]methyl}-1-[3-(trifluoromethyl)phenyl]methanesulfonamide]	16.4	417	19.9	> 5	3.5	1640
CNC(=O)Nc1ccc(S(=O)(=O)N(CC2CC2)C[C@H]2CCC3=Cc4c(cnn4-c4ccc(F)cc4)C[C@@]32C)c(Cl)c1 [Example 14, 2-chloro-N-(cyclopropylmethyl)-N-{[(4αR,5S)-1-(4-fluorophenyl)-4α-methyl-1,4,4α,5,6,7-hexahydrocyclopenta[f]indazol-5-yl]methyl}-4-{[(methylamino)carbonyl]amino}-benzenesulfonamide]	34.1	553	59.3	> 5	25.2	344
Cc1noc(C)c1S(=O)(=O)N(CCCc1ccccc1)C[C@H]1CCC2=Cc3c(cnn3-c3ccc(F)cc3)C[C@@]21C [Example 194, N-{[(4αR,5S)-1-(4-fluorophenyl)-4α-methyl-1,4,4α,5,6,7-hexahydrocyclopenta[f]indazol-5-yl]methyl}-3,5-dimethyl-N-(3-phenylpropyl)isoxazole-4-sulfonamide]	14.4	291	56.2	> 5	41.9	517
CCN(C[C@H]1CCC2=Cc3c(cnn3-c3ccc(F)cc3)C[C@@]21C)S(=O)(=O)c1c(C)noc1C [Example 178, N-ethyl-N-{[(4αR,5S)-1-(4-fluorophenyl)-4α-methyl-1,4,4α,5,6,7-hexahydrocyclopenta[f]indazol-5-yl]methyl}-3,5-dimethylisoxazole-4-sulfonamide]	19.5	276	74.5	> 5	55	110
C[C@]12Cc3cnn(-c4ccc(F)cc4)c3C=C1CC[C@@H]2CN(CC#N)S(=O)(=O)c1ccccc1C(F)(F)F [Example 54, N-(cyanomethyl)-N-{[(4αR,5S)-1-(4-fluorophenyl)-4α-methyl-1,4,4α,5,6,7-hexahydrocyclopenta[f]indazol-5-yl]methyl}-2-(trifluoromethyl)benzenesulfonamide]	23.1	1100	31.3	> 5	8.2	1080
C[C@]12Cc3cnn(-c4ccc(F)cc4)c3C=C1CC[C@@H]2CN(CCO)S(=O)(=O)c1cc(Cl)c(Cl)s1 [Example 58, 4,5-dichloro-N-{[(4αR,5S)-1-(4-fluorophenyl)-4α-methyl-1,4,4α,5,6,7-hexahydrocyclopenta[f]indazol-5-yl]methyl}-N-(2-hydroxyethyl)thiophene-2-sulfonamide]	25.7	737	28.8	> 5	3.1	1080
CCS(=O)(=O)N(CCOC)C[C@H]1CCC2=Cc3c(cnn3-c3ccc(F)cc3)C[C@@]21C [Example 171, N-{[(4αR,5S)-1-(4-fluorophenyl)-4α-methyl-1,4,4α,5,6,7-hexahydrocyclopenta[f]indazol-5-yl]methyl}-N-(2-methoxyethyl)ethanesulfonamide]	16.7	410	88	> 5	71.3	287

Reference: US8299048B2, “Hexahydrocyclopentyl[f]indazole sulfonamides and derivatives thereof as selective glucocorticoid receptor modulators” (Merck Sharp & Dohme Corp., priority 2008, dated 2012)
